Starred links: 1 amine or outer side, 2 acyl side, 3 side chain; linkers in the order of their positions; H or OH if unused. Non-standard residues stand in square brackets, D forms with d. Residues, ends and D or L forms follow the SMILES beside them. *: point of attachment. X1 = CC(C)C(C[C@H](O)[C@H](CC1CCCCC1)N[*:1])C(=O)[*:2]; NHCH2(2-pyridyl) = c1ccc(CN*)nc1; Boc = CC(C)(C)OC(=O)*; Aib = CC(C)(N)C(=O)O
Biological target: T1, purified HIV protease (Human immunodeficiency virus type 1 group M subtype B, UniProt P04585)
T1 construct: purified HIV protease was incubated with synthetic peptide
Assay: HIV-specific protease enzyme test (RP-HPLC analysis of cleavage of a synthetic Gag peptide)
Assay type: biochemical
Conditions: substance concentration causing 50% inhibition of protease activity; synthetic peptide substrate imitating Gag cleavage site
Protocol: The results of the examples shown below were determined by the HIV test system described in the following references [compare Hansen, J., Billich, S., Schulze, T., Sukro, S. and Molling, K. (1988), EMBO Journal, Vol. 7, No. 6, pp. 1785-1791]: purified HIV protease was incubated with synthetic peptide which imitates a cleavage site in the Gag precursor protein and represents an in vivo cleavage site of the HIV protease. The resulting cleavage products of the synthetic peptide were analyzed by means of Reverse Phase High Performance Liquid Chromatography (RP-HPLC). The IC50 values indicated relate to the substance concentration which causes a 50% inhibition of the protease activity under the abovementioned test conditions.

Structure (SMILES)	IC50 [µM]
CC[C@H](C)[C@H](NC(=O)C(C[C@H](O)[C@H](CC1CCCCC1)NC(=O)[C@H](CC(N)=O)NC(=O)C(C)(C)NC(=O)OC(C)(C)C)C(C)C)C(=O)NCc1ccccn1 (stereo partly drawn) [Example I, Nα-{Nδ-{Nα-{1-[2-(1,1-dimethylethoxycarbonyl)amino-2-methyl]propanoyl}-(S)-asparaginyl}-1-[5-(S)-amino-6-cyclohexyl-4-(S)-hydroxy-2-(1-methyl)ethyl]-hexanoyl}-(S)-isoleucinyl-2-pyridylmethylamide]	0.5
CC[C@H](C)[C@H](NC(=O)C(C[C@H](O)[C@H](CC1CCCCC1)NC(=O)C(C)(C)NC(=O)OC(C)(C)C)C(C)C)C(=O)NCc1ccccn1 (stereo partly drawn) [Example IV, Nα-{Nδ-{1-[2-(1,1-dimethylethoxycarbonyl)amino-2-methyl]propanoyl}-1-[5-(S)-amino-6-cyclohexyl-4-(S)-hydroxy-2-(1-methyl)ethoyl]hexanoyl}-(S)-isoleucinyl-2-pyridylmethylamide]	0.1
CC[C@H](C)[C@H](NC(=O)C(C[C@H](O)[C@H](CC1CCCCC1)NC(=O)[C@H](CC(N)=O)NC(=O)[C@H](Cc1ccccc1)NC(=O)[C@H](CO)NC(=O)C(C)(C)NC(=O)OC(C)(C)C)C(C)C)C(=O)NCc1ccccn1 (some centres unmarked) [III] (Boc-[Aib]SFN[X1]I-{NHCH2(2-pyridyl)})	0.005
CC[C@H](C)[C@H](NC(=O)C(C[C@H](O)[C@H](CC1CCCCC1)NC(=O)[C@H](CC(N)=O)NC(=O)[C@H](Cc1ccccc1)NC(=O)C(C)(C)NC(=O)OC(C)(C)C)C(C)C)C(=O)NCc1ccccn1 (some centres unmarked) [II] (Boc-[Aib]FN[X1]I-{NHCH2(2-pyridyl)})	0.05
CC[C@H](C)[C@H](NC(=O)C(C[C@H](O)[C@H](CC1CCCCC1)NC(=O)[C@@H](NC(=O)C(C)(C)NC(=O)OC(C)(C)C)C(C)C)C(C)C)C(=O)NCc1ccccn1 (some centres unmarked) [V]	0.05
